Laboratory results: ChEMBL document CHEMBL5120786, “Metabolomics-assisted discovery of a new anticancer GLS-1 inhibitor chemotype from a nortopsentin-inspired library: From phenotype screening to target identification” (Eur J Med Chem, 2022)
Calls of active or inactive are those of the source. No cut-off for these calls is given here.

What was measured:
MCF7 = experiment: Cytotoxicity against human MCF7 cells assessed as cell viability incubated for 72 hrs by MTT assay; assay type: functional, cell-based
[1] = test system: Panel NCI-60 (60 carcinoma cell lines); experiment: Anticancer activity against human NCI-60 cells assessed as cell growth inhibition incubated for 72 hrs by MTT assay; assay type: functional
MCF-10A = experiment: Cytotoxicity against human MCF-10A cells assessed as cell viability incubated for 72 hrs by MTT assay; assay type: functional, cell-based
HepG2 [2] = experiment: Cytotoxicity against human HepG2 cells assessed as cell viability incubated for 72 hrs by MTT assay; assay type: functional, cell-based
HepG2 [3] = experiment: Inhibition of cell invasion in human HepG2 cells assessed as reduction in MMP-9 level at 2.5 uM after 72 hrs by densitometric analysis; assay type: functional; set-up: scale not given: the % may be the effect or the level left
HepG2 [4] = experiment: Induction of cell cycle arrest in human HepG2 cells assessed as decrease in cyclin-B1 expression at 1.5 uM measured after 8 to 24 hrs by Western blotting analysis relative to control; assay type: functional; set-up: scale not given: the % may be the effect or the level left; details: time 8-24 hrs
HepG2 [5] = experiment: Downregulation of polyamine pathway in human HepG2 cells assessed as increase in intracellular ROS production; assay type: functional, cell-based
A549 = experiment: Cytotoxicity against human A549 cells overexpressing GLS-1; assay type: functional, cell-based
HepG2 [6] = experiment: Inhibition of cell invasion in human HepG2 cells assessed as reduction in MMP-9 level at 2.5 uM after 8 hrs by densitometric analysis; assay type: functional; set-up: scale not given: the % may be the effect or the level left
[7] = biological target: T1, Glutaminase kidney isoform, mitochondrial (Homo sapiens, UniProt O94925); experiment: Inhibition of human recombinant GLS-1 by measuring glutamate production incubated for 1 hr by fluorescence based multimode plate reader method
T1 sequence (O94925 whole entry): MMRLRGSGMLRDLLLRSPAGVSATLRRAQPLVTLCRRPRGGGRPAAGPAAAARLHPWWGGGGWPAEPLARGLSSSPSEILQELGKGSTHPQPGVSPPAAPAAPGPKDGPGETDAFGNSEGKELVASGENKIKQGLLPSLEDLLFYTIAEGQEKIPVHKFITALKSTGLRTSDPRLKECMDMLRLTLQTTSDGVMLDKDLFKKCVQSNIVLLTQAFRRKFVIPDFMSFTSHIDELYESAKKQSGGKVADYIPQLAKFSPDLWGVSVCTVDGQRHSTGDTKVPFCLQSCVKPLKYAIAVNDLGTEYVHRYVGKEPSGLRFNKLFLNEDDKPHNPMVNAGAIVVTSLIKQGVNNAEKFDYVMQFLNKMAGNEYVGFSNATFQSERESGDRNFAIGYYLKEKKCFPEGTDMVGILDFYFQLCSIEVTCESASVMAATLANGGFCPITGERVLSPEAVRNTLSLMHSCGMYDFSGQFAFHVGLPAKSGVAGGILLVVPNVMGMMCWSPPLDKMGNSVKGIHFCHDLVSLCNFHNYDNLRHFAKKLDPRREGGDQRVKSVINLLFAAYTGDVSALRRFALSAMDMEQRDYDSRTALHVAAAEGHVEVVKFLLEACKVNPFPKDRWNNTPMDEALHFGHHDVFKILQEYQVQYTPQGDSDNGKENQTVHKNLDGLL

HepG2 [8] = experiment: Downregulation of c-Myc level in human HepG2 cells; assay type: functional, cell-based
HepG2 [9] = experiment: Upregulation of stearoyl-carnitine level in human HepG2 cells; assay type: functional, cell-based
HepG2 [10] = experiment: Inhibition of cell invasion in human HepG2 cells assessed as reduction in MMP-2 level at 2.5 uM after 8 hrs by densitometric analysis; assay type: functional; set-up: scale not given: the % may be the effect or the level left
[11] = Cytotoxicity against human U-87 MG cells overexpressing GLS-1; assay type: functional, cell-based, U-87MG ATCC
[12] = biological target: T2, Glutaminase liver isoform, mitochondrial (Homo sapiens, UniProt Q9UI32); experiment: Inhibition of human recombinant GLS-2 by measuring glutamate production incubated for 1 hr by fluorescence based multimode plate reader method
T2 sequence (Q9UI32 whole entry): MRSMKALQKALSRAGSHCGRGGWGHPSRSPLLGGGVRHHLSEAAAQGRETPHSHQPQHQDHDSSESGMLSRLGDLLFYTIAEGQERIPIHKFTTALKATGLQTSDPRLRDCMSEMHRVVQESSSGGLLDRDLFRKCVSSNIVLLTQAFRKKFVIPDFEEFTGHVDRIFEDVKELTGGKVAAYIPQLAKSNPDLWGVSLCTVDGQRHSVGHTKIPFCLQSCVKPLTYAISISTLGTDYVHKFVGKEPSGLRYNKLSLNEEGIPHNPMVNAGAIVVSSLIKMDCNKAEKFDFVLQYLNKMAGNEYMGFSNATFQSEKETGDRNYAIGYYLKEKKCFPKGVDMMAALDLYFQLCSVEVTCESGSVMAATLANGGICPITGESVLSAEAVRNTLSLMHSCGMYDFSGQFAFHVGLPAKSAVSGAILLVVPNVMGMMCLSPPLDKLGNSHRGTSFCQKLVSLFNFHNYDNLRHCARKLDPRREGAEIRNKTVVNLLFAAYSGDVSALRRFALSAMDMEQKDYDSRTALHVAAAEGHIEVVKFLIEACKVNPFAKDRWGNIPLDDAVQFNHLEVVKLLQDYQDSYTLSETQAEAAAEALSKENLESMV

HepG2 [13] = experiment: Downregulation of GSH level in human HepG2 cells; assay type: functional, cell-based
A-375 = experiment: Cytotoxicity against human A-375 cells overexpressing GLS-1; assay type: functional, cell-based
HepG2 [14] = experiment: Induction of cell cycle arrest in human HepG2 cells assessed as decrease in cyclin-B1 expression at 1.5 uM measured after 72 hrs by Western blotting analysis relative to control; assay type: functional; set-up: scale not given: the % may be the effect or the level left
HepG2 [15] = experiment: Anticlonogenic activity against human HepG2 cells assessed as reduction of colony formation at 0.5 uM incubated for 14 days by crystal violet staining method; assay type: functional; set-up: scale not given: the % may be the effect or the level left; details: time 14 day
HepG2 [16] = experiment: Cytotoxicity against human HepG2 cells assessed as cell viability incubated for 72 hrs in presence of alpha-ketoglutarate by MTT assay; assay type: functional, cell-based; details: HepG2, 72 h
SAOS-2 = experiment: Cytotoxicity against human SAOS-2 cells overexpressing GLS-1; assay type: functional, cell-based
HepG2 [17] = experiment: Downregulation of spermidine level in human HepG2 cells; assay type: functional, cell-based
HepG2 [18] = experiment: Inhibition of cell migration in human HepG2 cells assessed as reduction in wound closure at 1.5 uM measured after 24 to 48 hrs by wound healing assay based contrat-phase microscopic analysis; assay type: functional; details: time 24-48 hrs
HepG2 [19] = experiment: Inhibition of cell invasion in human HepG2 cells assessed as reduction in MMP-2 level at 2.5 uM after 72 hrs by densitometric analysis; assay type: functional; set-up: scale not given: the % may be the effect or the level left
MIA PaCa-2 = experiment: Cytotoxicity against human MIA PaCa-2 cells overexpressing GLS-1; assay type: functional, cell-based

SMILES: c1cnc2[nH]cc(-c3csc(-c4cn(CCCN5CCCCC5)c5ccccc45)n3)c2c1
- Activity (MCF7): Active
- GI50 ([1]; read-out: GI50): 1.1 µM
- GI50 ([1]; read-out: pGI50 (converted)): 2.34 µM
- Activity (MCF-10A): Active

SMILES: COc1ccc2c(c1)c(-c1nc(-c3cn(C)c4ncccc34)cs1)cn2CCCCN1CCCCC1
- Activity (MCF7): Active
- Activity (HepG2 [2]): Active
- GI50 ([1]; read-out: GI50): 1.07 µM
- GI50 ([1]; read-out: pGI50 (converted)): 1.91 µM

SMILES: Fc1ccc2c(c1)c(-c1nc(-c3c[nH]c4ncccc34)cs1)cn2CCCN1CCOCC1
- Activity (MCF-10A): Active

SMILES: OCCn1cc(-c2nc(-c3c[nH]c4ncccc34)cs2)c2cc(Br)ccc21
- Activity (MCF7): Active
- Activity (HepG2 [2]): Active

SMILES: COc1ccc2c(c1)c(-c1nc(-c3c[nH]c4ncccc34)cs1)cn2CCCCN1CCOCC1
- GI50 ([1]; read-out: GI50): 0.22 µM
- GI50 ([1]; read-out: pGI50 (converted)): 5.25 µM

SMILES: COc1ccc2c(c1)c(-c1nc(-c3cn(C)c4ncccc34)cs1)cn2CCCCN1CCOCC1
- GI50 ([1]; read-out: GI50): 0.02 µM
- GI50 ([1]; read-out: pGI50 (converted)): 12 µM
- Activity (MCF-10A): Active

SMILES: Cn1cc(-c2csc(-c3cn(CCO)c4ccc(Br)cc34)n2)c2cccnc21
- Activity (MCF7): Active
- Activity (HepG2 [2]): Active

SMILES: Cn1cc(-c2csc(-c3cn(CCCCN4CCOCC4)c4ccc(F)cc34)n2)c2cccnc21
- Activity (MCF-10A): Active

SMILES: Cn1cc(-c2csc(-c3cn(CCCCN4CCOCC4)c4ccccc34)n2)c2cccnc21
- Activity (MCF-10A): Active

SMILES: COc1ccc2c(c1)c(-c1nc(-c3c[nH]c4ncccc34)cs1)cn2CCO
- Activity (MCF7): Active
- Activity (HepG2 [2]): Active

SMILES: COc1ccc2c(c1)c(-c1nc(-c3c[nH]c4ncccc34)cs1)cn2CCCN1CCCCC1
- Activity (MCF7): Active
- GI50 ([1]; read-out: GI50): 1.19 µM
- GI50 ([1]; read-out: pGI50 (converted)): 3.31 µM
- Activity (MCF-10A): Active

SMILES: Cn1cc(-c2csc(-c3cn(CCO)c4ccccc34)n2)c2cccnc21
- Activity (MCF7): Active
- Activity (HepG2 [2]): Active

SMILES: Br.Fc1ccc2c(c1)c(-c1nc(-c3c[nH]c4ncccc34)cs1)cn2CCCCN1CCOCC1
- Activity (HepG2 [3]): 75%
- Activity (HepG2 [4]): 50%
- Activity (HepG2 [5]): Active
- EC50 (A549): 8.47 µM
- Activity (HepG2 [6]): 50%
- EC50 [7]: 3.96 µM
- Activity (HepG2 [8]): Active
- Activity (HepG2 [9]): Active
- Activity (HepG2 [10]): 20%
- EC50 [11]: 3.63 µM
- EC50 [12]: 12.9 µM
- Activity (HepG2 [13]): Active
- EC50 (A-375): 5.84 µM
- Activity (HepG2 [14]): 75%
- EC50 (MCF7; MCF7, 72 h): 23.1 µM
- EC50 (HepG2 [2]; HepG2, 72 h): 3.25 µM
- Activity (HepG2 [15]): <=70%
- EC50 (HepG2 [16]): 27.2 µM
- EC50 (SAOS-2): 4.85 µM
- EC50 (MCF-10A): 29.1 µM
- Activity (HepG2 [17]): Active
- Activity (HepG2 [18]): Active
- Activity (HepG2 [19]): 80%
- EC50 (MIA PaCa-2): 6.98 µM

SMILES: COc1ccc2c(c1)c(-c1nc(-c3cn(C)c4ncccc34)cs1)cn2CCN1CCCCC1
- Activity (MCF7): Active
- Activity (MCF-10A): Active

SMILES: COc1ccc2c(c1)c(-c1nc(-c3c[nH]c4ncccc34)cs1)cn2CCN1CCCCC1
- Activity (MCF7): Active
- Activity (HepG2 [2]): Active

SMILES: Cn1cc(-c2csc(-c3cn(CCCCN4CCCCC4)c4ccc(F)cc34)n2)c2cccnc21
- GI50 ([1]; read-out: GI50): 1.46 µM
- GI50 ([1]; read-out: pGI50 (converted)): 16.2 µM

SMILES: COc1ccc2c(c1)c(-c1nc(-c3c[nH]c4ncccc34)cs1)cn2CCCCN1CCCCC1
- GI50 ([1]; read-out: GI50): 1.18 µM
- GI50 ([1]; read-out: pGI50 (converted)): 1.95 µM

SMILES: COc1ccc2c(c1)c(-c1nc(-c3c[nH]c4ncccc34)cs1)cn2CCCN1CCOCC1
- Activity (MCF7): Active
- Activity (HepG2 [2]): Active
- GI50 ([1]; read-out: GI50): 0.48 µM
- GI50 ([1]; read-out: pGI50 (converted)): 4.07 µM

SMILES: Cn1cc(-c2csc(-c3cn(CCN4CCOCC4)c4ccc(F)cc34)n2)c2cccnc21
- Activity (MCF7): Active
- Activity (HepG2 [2]): Active
- GI50 ([1]; read-out: GI50): 1.52 µM
- GI50 ([1]; read-out: pGI50 (converted)): 5.62 µM

SMILES: Fc1ccc2c(c1)c(-c1nc(-c3c[nH]c4ncccc34)cs1)cn2CCCN1CCCCC1
- Activity (MCF7): Active
- GI50 ([1]; read-out: GI50): 1.28 µM
- GI50 ([1]; read-out: pGI50 (converted)): 3.72 µM
- Activity (MCF-10A): Active

SMILES: c1cnc2[nH]cc(-c3csc(-c4cn(CCCCN5CCCCC5)c5ccccc45)n3)c2c1
- Activity (MCF7): Active
- Activity (HepG2 [2]): Active
